Columns and labels:
[1] = in water under ambient conditions; cited from earlier work
[2] = ozone release, first test: water added to powder in closed reactor, ozone detector; format: physicochemical; details: same conditions, after adding water
Method: In the first test, about 1.5 g of ozone storage material in powder form have been placed in a glass cup, which in turn has been placed in a glass reactor of volume 1.4 litres. The reactor can be hermetically closed and has been maintained at ambient temperature (˜20° C.).
A portable ozone detector (model X-an-5000 from Dräger, equipped with an XXS O3 cell specifically for ozone detection, detection limit equal to 0.02 ppm and resolution equal to 0.01 ppm, response time <10 s at 20° C.) has been introduced into the reactor and switched on near the powder cup. The detector thus placed makes it possible to continuously emphasise the presence of ozone in the reactor, from an ozone concentration higher than the detection limit of 0.02 ppm.
Secondly, using a graduated glass pipette, a volume of approximately 3 ml of distilled water has been introduced onto the powder through one of the upper openings of the reactor. The reactor has then been immediately hermetically closed again to monitor the course of the vapour phase composition of the reactor with the detector over time. The dissolution of part of the material (about ⅓ of the initial amount) by this addition of water (as the material is relatively soluble in water), caused a rapid increase in the ozone concentration over time as read on the detector (for example 0.1 ppm measured in 40 s; 0.2 ppm in 100 s). […]

Row | Molecule | lifetime [1] | ozone release on the detector [2]
1 | O=[O+][O-] [ozone] | about 20 minutes | 
2 | (2-hydroxypropyl)-β-cyclodextrin [native HP-β-CD] |  | no ozone release was observed

Source: US12434967B2, “Method for preparing a solid material for storing ozone, the material and the uses thereof” (priority 2019, dated 2025)
